Reference: article PMC7184563 (Journal of Medicinal Chemistry, 2020)

Key:
[1] = format: in vivo, mouse; conditions: 1 mg/kg iv and 5 mg/kg po, after dosing and 24 h after dose
[2] = PK study in SCID mouse, po; format: in vivo; conditions: 15 mg/kg po
BCL6 levels in tumor = BCL6 levels in tumor (Homo sapiens, UniProt P41182); assay: PK/PD study in OCI-Ly1 DLBCL xenograft model; conditions: single dose 15 mg/kg po
BCL6 BTB = BCL6 BTB (Homo sapiens, UniProt P41182); assay: biochemical; conditions: BCL6 IC50 (FP), geometric mean
HPLC solubility assay = format: physicochemical; conditions: kinetic solubility by HPLC in PBS buffer, 1% DMSO, pH 7.4
PAMPA permeability = format: in vitro ADME
Microsomal clearance = format: in vitro ADME
BCL6 [3] = target: T1, BCL6 (Homo sapiens, UniProt P41182); format: cell-based; conditions: SU-DHL-4
[4] = Microsomal clearance assay, mouse liver microsomes; format: in vitro ADME
BCL6 [5] = target: T1, BCL6; assay: Western blot of BCL6 protein levels, SU-DHL-4 cells; format: cell-based; conditions: 4 h at 37 °C
BCL6 [6] = target: T1, BCL6; assay: Western blot of BCL6 protein levels, OCI-Ly1 cells; format: cell-based; conditions: 4 h at 37 °C

## C[C@@H]1CN(c2ncc(Cl)c(Nc3ccc4c(c3)n(CCC(C)(C)O)c(=O)n4C)n2)C[C@H](C)C1(F)F [Compound 1, 5-((5-Chloro-2-((3R,5S)-4,4-difluoro-3,5-dimethylpiperidin-1-yl)pyrimidin-4-yl)amino)-3-(3-hydroxy-3-methylbutyl)-1-methyl-1,3-dihydro-2H-benzo[d]imidazol-2-one]
[1]
  appearance of mice after dosing: appeared normal
[2]
  time mean total blood concentration above the desired concentration: approximately 10 h
BCL6 levels in tumor
  free concentration that leads to degradation of BCL6 in tumor: > 1 nM
  time of maximal effect on tumor BCL6: ~4 h
BCL6 levels in tumor; OCI-Ly1 xenograft, up to 10 h after dosing
  levels of BCL6 in the tumor: clear decrease in levels of BCL6 in the tumor
BCL6 levels in tumor; SCID mice
  adverse events: No visible adverse events were observed

## N#Cc1c(NCc2ccccc2)ccnc1Cl [Compound 2]
BCL6 BTB
  IC50: ~100 µM

## Cn1c(=O)n(C)c2cc(Nc3cc(SCc4ccccc4)ncn3)ccc21 [Compound 3]
BCL6 BTB
  IC50: ~100 µM

## Cn1c(=O)n(C)c2cc(Nc3ccnc(Cl)c3C#N)ccc21 [Compound 6, 2-Chloro-4-((1,3-dimethyl-2-oxo-2,3-dihydro-1H-benzo[d]imidazol-5-yl)amino)nicotinonitrile]
HPLC solubility assay
  Aq. sol. (HPLC, shown in parentheses): (16) μM
PAMPA permeability
  PAMPA permeability (in words): high PAMPA permeability
Microsomal clearance
  microsomal clearance (in words): Low microsomal clearance

## Cn1c(=O)n(CCC(C)(C)O)c2cc(Nc3ccnc(Cl)c3C#N)ccc21 [Compound 17a, 2-Chloro-4-((3-(3-hydroxy-3-methylbutyl)-1-methyl-2-oxo-2,3-dihydro-1H-benzo[d]imidazol-5-yl)amino)nicotinonitrile]
HPLC solubility assay
  Aq. sol. (HPLC, shown in parentheses): (25) μM

## CC1CCCN(c2ncc(Cl)c(Nc3ccc4c(c3)n(CCC(C)(C)O)c(=O)n4C)n2)C1 (centres unmarked) [Compound 24a, 5-((5-Chloro-2-(3-methylpiperidin-1-yl)pyrimidin-4-yl)amino)-3-(3-hydroxy-3-methylbutyl)-1-methyl-1,3-dihydro-2H-benzo[d]imidazol-2-one]
BCL6 [3]
  BCL6 degradation in the IF assay (in words): identified as degraders
[4]
  metabolism in mouse microsomes (in words): rapid metabolism

## C[C@@H]1C[C@H](C)CN(c2ncc(Cl)c(Nc3ccc4c(c3)n(CCC(C)(C)O)c(=O)n4C)n2)C1 [Compound 24b, 5-((5-Chloro-2-((3S,5R)-3,5-dimethylpiperidin-1-yl)pyrimidin-4-yl)amino)-3-(3-hydroxy-3-methylbutyl)-1-methyl-1,3-dihydro-2H-benzo[d]imidazol-2-one]
BCL6 [3]
  BCL6 degradation in the IF assay (in words): identified as degraders
[4]
  metabolism in mouse microsomes (in words): rapid metabolism
BCL6 [5]
  BCL6 protein levels by Western blot, SU-DHL-4: concentration-dependent reduction in BCL6 protein levels
BCL6 [6]
  BCL6 protein levels by Western blot, OCI-Ly1: concentration-dependent reduction in BCL6 protein levels

## C[C@@H]1CN(c2ncc(Cl)c(Nc3ccc4c(c3)n(CCC(C)(C)O)c(=O)n4C)n2)C[C@H](C)O1 [Compound 25a, 5-((5-Chloro-2-((2R,6S)-2,6-dimethylmorpholino)pyrimidin-4-yl)amino)-3-(3-hydroxy-3-methylbutyl)-1-methyl-1,3-dihydro-2H-benzo[d]imidazol-2-one]
BCL6 [3]
  BCL6 degradation in the IF assay (in words): not capable of inducing BCL6 degradation

## C[C@@H]1CN(c2ncc(Cl)c(Nc3ccc4c(c3)n(CCC(C)(C)O)c(=O)n4C)n2)C[C@H](C)N1C [Compound 25c, 5-((5-Chloro-2-((3S,5R)-3,4,5-trimethylpiperazin-1-yl)pyrimidin-4-yl)amino)-3-(3-hydroxy-3-methylbutyl)-1-methyl-1,3-dihydro-2H-benzo[d]imidazol-2-one]
BCL6 [3]
  BCL6 degradation in the IF assay (in words): not capable of inducing BCL6 degradation

## C[C@@H]1C[C@H](C)CN(c2cc(Nc3ccc4c(c3)n(CCC(C)(C)O)c(=O)n4C)c(Cl)cn2)C1 [Compound 26b, 5-((5-Chloro-2-((3S,5R)-3,5-dimethylpiperidin-1-yl)pyridin-4-yl)amino)-3-(3-hydroxy-3-methylbutyl)-1-methyl-1,3-dihydro-2H-benzo[d]imidazol-2-one]
BCL6 [3]
  BCL6 degradation in the IF assay (in words): identified as degraders

## COCC1CN(c2ncc(Cl)c(Nc3ccc4c(c3)n(CCC(C)(C)O)c(=O)n4C)n2)CCC1(F)F (centres unmarked) [Compound 27f, 5-((5-Chloro-2-(4,4-difluoro-3-(methoxymethyl)piperidin-1-yl)pyrimidin-4-yl)amino)-3-(3-hydroxy-3-methylbutyl)-1-methyl-1,3-dihydro-2H-benzo[d]imidazol-2-one]
BCL6 [3]
  BCL6 degradation in the IF assay (in words): reduced degradation

## Cn1c(=O)n(CCC(C)(C)O)c2cc(Nc3nc(N4CCCC(C#N)C4)ncc3Cl)ccc21 (centres unmarked) [Compound 27g, 1-(5-Chloro-4-((3-(3-hydroxy-3-methylbutyl)-1-methyl-2-oxo-2,3-dihydro-1H-benzo[d]imidazol-5-yl)amino)pyrimidin-2-yl)piperidine-3-carbonitrile]
BCL6 [3]
  BCL6 degradation in the IF assay (in words): did not enable degradation

## Cn1c(=O)n(CCC(C)(C)O)c2cc(Nc3nc(N4CCC(C(F)(F)F)CC4)ncc3Cl)ccc21 [Compound 27h, 5-((5-Chloro-2-(4-(trifluoromethyl)piperidin-1-yl)pyrimidin-4-yl)amino)-3-(3-hydroxy-3-methylbutyl)-1-methyl-1,3-dihydro-2H-benzo[d]imidazol-2-one]
BCL6 [3]
  BCL6 degradation in the IF assay (in words): loss of degradation activity

## Cn1c(=O)n(CCC(C)(C)O)c2cc(Nc3nc(N4CC5CCC(C4)C5(F)F)ncc3Cl)ccc21 [Compound 28a, 5-((5-Chloro-2-(8,8-difluoro-3-azabicyclo[3.2.1]octan-3-yl)pyrimidin-4-yl)amino)-3-(3-hydroxy-3-methylbutyl)-1-methyl-1,3-dihydro-2H-benzo[d]imidazol-2-one]
BCL6 [3]
  BCL6 degradation in the IF assay (in words): loss of degradation activity

## Cn1c(=O)n(CCC(C)(C)O)c2cc(Nc3nc(N4C5CCC4CC(F)(F)C5)ncc3Cl)ccc21 [Compound 28b, 5-((5-Chloro-2-(3,3-difluoro-8-azabicyclo[3.2.1]octan-8-yl)pyrimidin-4-yl)amino)-3-(3-hydroxy-3-methylbutyl)-1-methyl-1,3-dihydro-2H-benzo[d]imidazol-2-one]
BCL6 [3]
  BCL6 degradation in the IF assay (in words): loss of degradation activity
